Assay results: patent US20250325677A1, “STAT6 DEGRADERS” (Gilead Sciences, Inc., priority 2024, published 2025)

Assays:
STAT6 [1] = biological target: T1, STAT6 (Homo sapiens (Human), UniProt P42226); experiment: STAT6 degrader assay (HiBiT, HeLa LgBiT clone 4.14); assay type: cell-based; conditions: HeLa LgBiT clone 4.14, 4-24 h; geometric mean; given for compounds with >80% Emax; read-out: STAT6 degradation DC50
Outline: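 HeLa LgBiT clone 4.14 cells with HiBiT knocked into endogenous STAT6 were treated with compound for 4-24 h at 37° C. Luminescence after Nano-GLO substrate (0.5 h) measured remaining STAT6; 50 μM terfenadine wells defined 100% degradation, and DC50 (nM) was derived.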
Target sequence in this assay (P42226 whole entry): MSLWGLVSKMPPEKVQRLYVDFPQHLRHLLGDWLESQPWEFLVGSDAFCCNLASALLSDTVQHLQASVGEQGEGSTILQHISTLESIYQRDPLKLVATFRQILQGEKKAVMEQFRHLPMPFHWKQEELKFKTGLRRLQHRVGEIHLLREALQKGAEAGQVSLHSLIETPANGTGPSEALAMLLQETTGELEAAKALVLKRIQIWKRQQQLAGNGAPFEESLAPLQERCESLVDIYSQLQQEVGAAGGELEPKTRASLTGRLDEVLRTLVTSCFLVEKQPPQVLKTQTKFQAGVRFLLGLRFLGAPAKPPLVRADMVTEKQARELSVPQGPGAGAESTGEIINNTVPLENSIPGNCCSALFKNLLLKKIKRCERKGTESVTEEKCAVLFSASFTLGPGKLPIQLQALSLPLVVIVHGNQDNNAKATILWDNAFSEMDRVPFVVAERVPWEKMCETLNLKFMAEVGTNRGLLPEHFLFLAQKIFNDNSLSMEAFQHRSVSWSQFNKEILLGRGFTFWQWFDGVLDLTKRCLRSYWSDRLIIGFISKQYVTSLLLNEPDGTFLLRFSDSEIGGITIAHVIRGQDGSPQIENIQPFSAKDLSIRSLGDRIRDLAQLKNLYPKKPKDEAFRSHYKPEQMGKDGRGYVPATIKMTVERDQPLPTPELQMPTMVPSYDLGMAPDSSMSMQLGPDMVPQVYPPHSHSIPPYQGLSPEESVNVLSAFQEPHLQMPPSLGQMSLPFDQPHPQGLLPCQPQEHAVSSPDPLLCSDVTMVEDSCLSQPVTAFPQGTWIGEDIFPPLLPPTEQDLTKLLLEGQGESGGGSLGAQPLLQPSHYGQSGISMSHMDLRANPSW

STAT6 [2] = biological target: T1, STAT6; experiment: Surface plasmon resonance assay; assay type: binding; conditions: truncated human STAT6 aa122-658, 25° C.; read-out: STAT6 SPR Kd
Description: Surface Plasmon Resonance Assay
SPR was used to confirm and quantify binding of compounds to human STAT6. Biacore instruments from the 8K-series (Cytiva) were used, and measurements were performed at 25° C. Human STAT6 (truncated, aa122-658, with N-terminal His-tag, expressed in insect cells) was immobilized in the active flow cells on a CM5 chip using amine-coupling (default settings) at 10 μg/ml in 10 mM acetate buffer pH 5.5, at a contact time of 120-420 sec. and a flow rate of 10 μl/min. Reference flow cells were deactivated using blank immobilization. PBS-P+(Cytiva) supplemented with 2% DMSO was used as running buffer, and solvent correction was applied. Compounds were tested by multi-cycle kinetics injections using a contact time of 60 sec., dissociation time of up to 300 sec., and a flow rate of 30 μl/min.
Solvent-corrected, reference-subtracted and blank-corrected data was processed and binding isotherms were fitted according to a single report point from each sensorgram (Standard: Late binding (5 sec. before injection end); alternative: Earlier report point according to binding profile). Data fitting was done both with unfixed Rmax and with Rmax fixed to the theoretical value* assuming 1:1 binding to allow processing of data from both weak and strong binders as well as to evaluate binding stoichiometry.
Positive controls were run at the beginning, during, and at the end of the screen to evaluate surface activity. Generally surface activity was only affected to a minor degree, and no corrections were applied. • Equation for calculation of the theoretical Rmax (Theoretical Rmax=(MW Analyte/MW Ligand)×immobilization level).
The sensorgrams for Examples 3e5, 3t4, and 3p1 are shown in FIG. 1 (where RU is plotted vs. time in seconds; dotted lines/points were excluded from the analysis due to effects from non-specific binding)).
Target sequence in this assay (P42226 122-658): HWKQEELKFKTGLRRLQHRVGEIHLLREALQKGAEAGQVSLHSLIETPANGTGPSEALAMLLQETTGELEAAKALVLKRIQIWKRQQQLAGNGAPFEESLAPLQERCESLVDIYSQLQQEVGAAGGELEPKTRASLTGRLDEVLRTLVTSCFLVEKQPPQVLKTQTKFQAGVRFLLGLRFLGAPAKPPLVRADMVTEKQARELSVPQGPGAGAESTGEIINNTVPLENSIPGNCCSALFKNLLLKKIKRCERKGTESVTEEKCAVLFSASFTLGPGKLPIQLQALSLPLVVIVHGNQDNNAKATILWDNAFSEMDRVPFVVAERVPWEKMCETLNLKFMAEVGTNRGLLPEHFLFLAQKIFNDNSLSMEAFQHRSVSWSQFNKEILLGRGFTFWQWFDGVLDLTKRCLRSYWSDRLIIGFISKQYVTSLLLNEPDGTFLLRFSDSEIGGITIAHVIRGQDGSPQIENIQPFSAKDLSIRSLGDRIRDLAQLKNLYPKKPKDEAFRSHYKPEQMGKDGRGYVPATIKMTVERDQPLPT

eotaxin-3 release = experiment: Human whole blood eotaxin-3 assay (IL-4 stimulated); assay type: cell-based; conditions: human whole blood, IL-4 0.4 nM, 48 hours; geometric mean; given for compounds with >80% Emax; read-out: Eotaxin-3 EC50
Outline: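 Human whole blood was preincubated with compound for 120 min at 37 °C, then stimulated with recombinant human IL-4 (E. coli) at 0.4 nM final for 48 h. Inhibition of eotaxin-3 release gave EC50 values.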

DC50 (STAT6 [1]) | Kd (STAT6 [2]) | EC50 (eotaxin-3 release) | Structure (SMILES)
5.4 nM | 104 nM | – | Cn1c(CN2CCC(c3ccc(C(=O)N4CCC(CN5CCN(Cc6ccc7c(c6)n(C6CC6)c(=O)n7C6CCC(=O)NC6=O)CC5)CC4)cc3)CC2)cc2c(-c3ccc(N)nc3)ccnc21 (stereo not shown) [Example 3e5, 3-(5-((4-((1-(4-(1-((4-(6-aminopyridin-3-yl)-1-methyl-1H-pyrrolo[2,3-b]pyridin-2-yl)methyl)piperidin-4-yl)benzoyl)piperidin-4-yl)methyl)piperazin-1-yl)methyl)-3-cyclopropyl-2-oxo-2,3-dihydro-1H-benzo[d]imidazol-1-yl)piperidine-2,6-dione]
0.1 nM | 11.4 nM | 1 nM | CN(C(=O)c1ccc(C2CCN(Cc3cc4c(-c5ccc(N)nc5)ccnc4n3C)CC2)cc1)c1ccc(C2CCN(Cc3ccc4c(c3)n(C)c(=O)n4C3CCC(=O)NC3=O)CC2)cc1 (stereo not shown) [Example 3p1, 4-(1-((4-(6-aminopyridin-3-yl)-1-methyl-1H-pyrrolo[2,3-b]pyridin-2-yl)methyl)piperidin-4-yl)-N-(4-(1-((1-(2,6-dioxopiperidin-3-yl)-3-methyl-2-oxo-2,3-dihydro-1H-benzo[d]imidazol-5-yl)methyl)-piperidin-4-yl)phenyl)-N-methylbenzamide]
0.1 nM | 37.8 nM | – | Cn1c(CN2CCC(c3ccc(-c4nnc5ccc(N6CCC(CN7CCN(Cc8ccc9c(c8)n(C)c(=O)n9C8CCC(=O)NC8=O)CC7)CC6)nn45)cc3)CC2)cc2c(-c3ccc(N)nc3)ccnc21 (stereo not shown) [Example 3t4, 3-(5-((4-((1-(3-(4-(1-((4-(6-aminopyridin-3-yl)-1-methyl-1H-pyrrolo[2,3-b]pyridin-2-yl)methyl)-piperidin-4-yl)phenyl)-[1,2,4]triazolo[4,3-b]pyridazin-6-yl)piperidin-4-yl)methyl)piperazin-1-yl)methyl)-3-methyl-2-oxo-2,3-dihydro-1H-benzo[d]imidazol-1-yl)piperidine-2,6-dione]
